{"source": "patent US5968910A", "about": "“Compositions containing two or three inhibitors of different HIV reverse transcriptases” (priority 1994, dated 1999)", "key": {"HIV-1/B 101Glu": {"system": "HIV-1/B 101Glu", "assay": "Sensitivity of mutant HIV-1 strain in CEM cell cultures", "assay_type": "cell-based", "details": "Table 5", "outline": "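Infect CEM cells (250,000 cells per ml) with virus at 100 CCID50/ml; add infected suspension to wells holding diluted compound; incubate 4 days, 37° C.; examine for syncytia.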"}, "HIV-1": {"system": "HIV-1", "assay": "Breakthrough of mutant HIV-1 strains in CEM cell cultures, single drugs and double/triple combinations", "assay_type": "cell-based", "experimental": "The culture medium consisted of RPMI 1640 containing 10% fetal bovine serum, 2 mM L-glutamine, and 0.075% NaHCO3. The multiplicity of the initial infection was ~1000 times the CCID50 (50% cell culture infective dose). Passages were performed every 3 to 4 days by adding 0.5 to 1.0 ml of the infected culture supernatant to 5 ml of a suspension containing 4×10^5 uninfected CEM cells per ml. Syncytium formation was used as a parameter of virus breakthrough in the cell cultures. In the drug combination experiments, the compounds were combined at the same initial concentrations as used for the two lowest concentrations in the single-drug experiments.\nCompound IV, BHAP and TSAO-m^3 T were added to HIV-1-infected CEM cell cultures at 0.04, 0.10 and 0.25 ug/ml (Compound IV and BHAP) or 1.0, 2.5 and 5.0 μg/ml (TSAO-m^3 T). In addition, various double- and triple-drug combinations of Compound IV, BHAP and TSAO-m^3 T were performed, combining these inhibitors at their lowest (0.04 μg/ml) or intermediary (0.1 μg/ml) concentration as used in the single-drug experiments."}}, "note": "Read-outs that look alike come from different tables or passages of the source."}
{"molecule": "Cc1occc1C(=S)Nc1ccc(Cl)c(C=NOC(C)(C)C)c1", "note": "[Compound I]", "values": [{"measurement": "EC50", "setting": "HIV-1/B 101Glu; Human immunodeficiency virus 1, CCRF-CEM, read-out: EC50", "result": "≥ 1", "unit": "µg/mL"}]}
{"molecule": "Cc1cn([C@@H]2O[C@H](CO[Si](C)(C)C(C)(C)C)[C@@]3(OS(=O)(=O)C=C3N)[C@H]2O[Si](C)(C)C(C)(C)C)c(=O)n(C)c1=O", "note": "[TSAO-m^3 T]", "values": [{"measurement": "HIV-1-induced syncytium formation in CEM cells", "setting": "HIV-1; single drug 1.0 μg/ml, day 4 post infection", "result": "0 percentage of control"}, {"measurement": "HIV-1-induced syncytium formation in CEM cells", "setting": "HIV-1; single drug 1.0 μg/ml, day 7 post infection", "result": "0 percentage of control"}, {"measurement": "HIV-1-induced syncytium formation in CEM cells", "setting": "HIV-1; single drug 1.0 μg/ml, day 11 post infection", "result": "0 percentage of control"}, {"measurement": "HIV-1-induced syncytium formation in CEM cells", "setting": "HIV-1; single drug 1.0 μg/ml, day 14 post infection", "result": "12.5 percentage of control"}, {"measurement": "HIV-1-induced syncytium formation in CEM cells", "setting": "HIV-1; single drug 1.0 μg/ml, day 18 post infection", "result": "75 percentage of control"}, {"measurement": "HIV-1-induced syncytium formation in CEM cells", "setting": "HIV-1; single drug 1.0 μg/ml, day 21 post infection", "result": "100 percentage of control"}, {"measurement": "HIV-1-induced syncytium formation in CEM cells", "setting": "HIV-1; single drug 1.0 μg/ml, day 25 post infection", "result": "100 percentage of control"}, {"measurement": "HIV-1-induced syncytium formation in CEM cells", "setting": "HIV-1; single drug 1.0 μg/ml, day 28 post infection", "result": "100 percentage of control"}, {"measurement": "HIV-1-induced syncytium formation in CEM cells", "setting": "HIV-1; single drug 1.0 μg/ml, day 32 post infection", "result": "100 percentage of control"}, {"measurement": "HIV-1-induced syncytium formation in CEM cells", "setting": "HIV-1; single drug 1.0 μg/ml, day 35 post infection", "result": "100 percentage of control"}, {"measurement": "HIV-1-induced syncytium formation in CEM cells", "setting": "HIV-1; single drug 1.0 μg/ml, day 39 post infection", "result": "100 percentage of control"}, {"measurement": "HIV-1-induced syncytium formation in CEM cells", "setting": "HIV-1; single drug 1.0 μg/ml, day 42 post infection", "result": "100 percentage of control"}, {"measurement": "HIV-1-induced syncytium formation in CEM cells", "setting": "HIV-1; single drug 1.0 μg/ml, day 46 post infection", "result": "100 percentage of control"}, {"measurement": "HIV-1-induced syncytium formation in CEM cells", "setting": "HIV-1; single drug 1.0 μg/ml, day 49 post infection", "result": "100 percentage of control"}, {"measurement": "HIV-1-induced syncytium formation in CEM cells", "setting": "HIV-1; single drug 1.0 μg/ml, day 53 post infection", "result": "100 percentage of control"}, {"measurement": "HIV-1-induced syncytium formation in CEM cells", "setting": "HIV-1; single drug 1.0 μg/ml, day 56 post infection", "result": "100 percentage of control"}, {"measurement": "HIV-1-induced syncytium formation in CEM cells", "setting": "HIV-1; single drug 1.0 μg/ml, day 60 post infection", "result": "100 percentage of control"}, {"measurement": "HIV-1-induced syncytium formation in CEM cells", "setting": "HIV-1; single drug 1.0 μg/ml, day 64 post infection", "result": "100 percentage of control"}, {"measurement": "HIV-1-induced syncytium formation in CEM cells", "setting": "HIV-1; single drug 1.0 μg/ml, day 67 post infection", "result": "100 percentage of control"}, {"measurement": "HIV-1-induced syncytium formation in CEM cells", "setting": "HIV-1; single drug 1.0 μg/ml, day 71 post infection", "result": "100 percentage of control"}, {"measurement": "HIV-1-induced syncytium formation in CEM cells", "setting": "HIV-1; single drug 1.0 μg/ml, day 74 post infection", "result": "100 percentage of control"}, {"measurement": "HIV-1-induced syncytium formation in CEM cells", "setting": "HIV-1; single drug 1.0 μg/ml, day 77 post infection", "result": "100 percentage of control"}, {"measurement": "HIV-1-induced syncytium formation in CEM cells", "setting": "HIV-1; single drug 2.5 μg/ml, day 4 post infection", "result": "0 percentage of control"}, {"measurement": "HIV-1-induced syncytium formation in CEM cells", "setting": "HIV-1; single drug 2.5 μg/ml, day 7 post infection", "result": "0 percentage of control"}, {"measurement": "HIV-1-induced syncytium formation in CEM cells", "setting": "HIV-1; single drug 2.5 μg/ml, day 11 post infection", "result": "0 percentage of control"}, {"measurement": "HIV-1-induced syncytium formation in CEM cells", "setting": "HIV-1; single drug 2.5 μg/ml, day 14 post infection", "result": "12.5 percentage of control"}, {"measurement": "HIV-1-induced syncytium formation in CEM cells", "setting": "HIV-1; single drug 2.5 μg/ml, day 18 post infection", "result": "75 percentage of control"}, {"measurement": "HIV-1-induced syncytium formation in CEM cells", "setting": "HIV-1; single drug 2.5 μg/ml, day 21 post infection", "result": "100 percentage of control"}, {"measurement": "HIV-1-induced syncytium formation in CEM cells", "setting": "HIV-1; single drug 2.5 μg/ml, day 25 post infection", "result": "100 percentage of control"}, {"measurement": "HIV-1-induced syncytium formation in CEM cells", "setting": "HIV-1; single drug 2.5 μg/ml, day 28 post infection", "result": "100 percentage of control"}, {"measurement": "HIV-1-induced syncytium formation in CEM cells", "setting": "HIV-1; single drug 2.5 μg/ml, day 32 post infection", "result": "100 percentage of control"}, {"measurement": "HIV-1-induced syncytium formation in CEM cells", "setting": "HIV-1; single drug 2.5 μg/ml, day 35 post infection", "result": "100 percentage of control"}, {"measurement": "HIV-1-induced syncytium formation in CEM cells", "setting": "HIV-1; single drug 2.5 μg/ml, day 39 post infection", "result": "100 percentage of control"}, {"measurement": "HIV-1-induced syncytium formation in CEM cells", "setting": "HIV-1; single drug 2.5 μg/ml, day 42 post infection", "result": "100 percentage of control"}, {"measurement": "HIV-1-induced syncytium formation in CEM cells", "setting": "HIV-1; single drug 2.5 μg/ml, day 46 post infection", "result": "100 percentage of control"}, {"measurement": "HIV-1-induced syncytium formation in CEM cells", "setting": "HIV-1; single drug 2.5 μg/ml, day 49 post infection", "result": "100 percentage of control"}, {"measurement": "HIV-1-induced syncytium formation in CEM cells", "setting": "HIV-1; single drug 2.5 μg/ml, day 53 post infection", "result": "100 percentage of control"}, {"measurement": "HIV-1-induced syncytium formation in CEM cells", "setting": "HIV-1; single drug 2.5 μg/ml, day 56 post infection", "result": "100 percentage of control"}, {"measurement": "HIV-1-induced syncytium formation in CEM cells", "setting": "HIV-1; single drug 2.5 μg/ml, day 60 post infection", "result": "100 percentage of control"}, {"measurement": "HIV-1-induced syncytium formation in CEM cells", "setting": "HIV-1; single drug 2.5 μg/ml, day 64 post infection", "result": "100 percentage of control"}, {"measurement": "HIV-1-induced syncytium formation in CEM cells", "setting": "HIV-1; single drug 2.5 μg/ml, day 67 post infection", "result": "100 percentage of control"}, {"measurement": "HIV-1-induced syncytium formation in CEM cells", "setting": "HIV-1; single drug 2.5 μg/ml, day 71 post infection", "result": "100 percentage of control"}, {"measurement": "HIV-1-induced syncytium formation in CEM cells", "setting": "HIV-1; single drug 2.5 μg/ml, day 74 post infection", "result": "100 percentage of control"}, {"measurement": "HIV-1-induced syncytium formation in CEM cells", "setting": "HIV-1; single drug 2.5 μg/ml, day 77 post infection", "result": "100 percentage of control"}, {"measurement": "HIV-1-induced syncytium formation in CEM cells", "setting": "HIV-1; single drug 5.0 μg/ml, day 4 post infection", "result": "0 percentage of control"}, {"measurement": "HIV-1-induced syncytium formation in CEM cells", "setting": "HIV-1; single drug 5.0 μg/ml, day 7 post infection", "result": "0 percentage of control"}, {"measurement": "HIV-1-induced syncytium formation in CEM cells", "setting": "HIV-1; single drug 5.0 μg/ml, day 11 post infection", "result": "0 percentage of control"}, {"measurement": "HIV-1-induced syncytium formation in CEM cells", "setting": "HIV-1; single drug 5.0 μg/ml, day 14 post infection", "result": "12.5 percentage of control"}, {"measurement": "HIV-1-induced syncytium formation in CEM cells", "setting": "HIV-1; single drug 5.0 μg/ml, day 18 post infection", "result": "75 percentage of control"}, {"measurement": "HIV-1-induced syncytium formation in CEM cells", "setting": "HIV-1; single drug 5.0 μg/ml, day 21 post infection", "result": "100 percentage of control"}, {"measurement": "HIV-1-induced syncytium formation in CEM cells", "setting": "HIV-1; single drug 5.0 μg/ml, day 25 post infection", "result": "100 percentage of control"}, {"measurement": "HIV-1-induced syncytium formation in CEM cells", "setting": "HIV-1; single drug 5.0 μg/ml, day 28 post infection", "result": "100 percentage of control"}, {"measurement": "HIV-1-induced syncytium formation in CEM cells", "setting": "HIV-1; single drug 5.0 μg/ml, day 32 post infection", "result": "100 percentage of control"}, {"measurement": "HIV-1-induced syncytium formation in CEM cells", "setting": "HIV-1; single drug 5.0 μg/ml, day 35 post infection", "result": "100 percentage of control"}, {"measurement": "HIV-1-induced syncytium formation in CEM cells", "setting": "HIV-1; single drug 5.0 μg/ml, day 39 post infection", "result": "100 percentage of control"}, {"measurement": "HIV-1-induced syncytium formation in CEM cells", "setting": "HIV-1; single drug 5.0 μg/ml, day 42 post infection", "result": "100 percentage of control"}, {"measurement": "HIV-1-induced syncytium formation in CEM cells", "setting": "HIV-1; single drug 5.0 μg/ml, day 46 post infection", "result": "100 percentage of control"}, {"measurement": "HIV-1-induced syncytium formation in CEM cells", "setting": "HIV-1; single drug 5.0 μg/ml, day 49 post infection", "result": "100 percentage of control"}, {"measurement": "HIV-1-induced syncytium formation in CEM cells", "setting": "HIV-1; single drug 5.0 μg/ml, day 53 post infection", "result": "100 percentage of control"}, {"measurement": "HIV-1-induced syncytium formation in CEM cells", "setting": "HIV-1; single drug 5.0 μg/ml, day 56 post infection", "result": "100 percentage of control"}, {"measurement": "HIV-1-induced syncytium formation in CEM cells", "setting": "HIV-1; single drug 5.0 μg/ml, day 60 post infection", "result": "100 percentage of control"}, {"measurement": "HIV-1-induced syncytium formation in CEM cells", "setting": "HIV-1; single drug 5.0 μg/ml, day 64 post infection", "result": "100 percentage of control"}, {"measurement": "HIV-1-induced syncytium formation in CEM cells", "setting": "HIV-1; single drug 5.0 μg/ml, day 67 post infection", "result": "100 percentage of control"}, {"measurement": "HIV-1-induced syncytium formation in CEM cells", "setting": "HIV-1; single drug 5.0 μg/ml, day 71 post infection", "result": "100 percentage of control"}, {"measurement": "HIV-1-induced syncytium formation in CEM cells", "setting": "HIV-1; single drug 5.0 μg/ml, day 74 post infection", "result": "100 percentage of control"}, {"measurement": "HIV-1-induced syncytium formation in CEM cells", "setting": "HIV-1; single drug 5.0 μg/ml, day 77 post infection", "result": "100 percentage of control"}, {"measurement": "virus breakthrough delayed till day", "setting": "HIV-1; single drug, higher concentrations", "result": 14, "unit": "days"}, {"measurement": "EC50", "setting": "HIV-1/B 101Glu", "result": "> 2.5", "unit": "µg/mL"}]}
